Measurements published in patent US5278142A, “Systemic delivery of polypeptides through the eye” (Orbon Corporation, priority 1992, dated 1994).
Where “and” joins values, the source holds several entries; their conditions need not be identical. Identical values can stand only once.

What was measured:
[1] = Blood concentration of TRH, LHRH and glucagon after ocular instillation or i.v. injection (Example 5)
Source text: The concentrations of peptides in the blood were expressed in ng/ml.

[2] = Amount of enkephalin-equivalent remaining in eye tissues at the end of 12 hr experiment
[3] = Blood enkephalin-equivalent concentration after ocular instillation or i.v. injection; conditions: enkephalin 50 ug i.v.
[4] = system: blood glucose; test: Effects of absorption enhancers plus insulin on blood glucose concentrations; type: in vivo, New Zealand white rabbits; conditions: for % Change in Blood Glucose Concentration / Blood Glucose Concentration After / Blood Glucose Concentration Before: eye drops 1% insulin plus 1% absorption enhancer (Control: 1% insulin only)
[5] = Effects of absorption enhancers on the penetration of insulin into eyeballs; type: in vivo, New Zealand white rabbits; conditions: 1% insulin plus enhancer
[6] = Effects of absorption enhancers on insulin penetration (blood insulin concentration)
[7] = 1% enhancer with 1% insulin eye drops

## O=C(O)CNC(=O)C(CS)Cc1ccccc1 (racemic) [D,L-Thiorphan, D,L-thiorphan]
[1]; Leu-Leu 4 mM, Bestatin 60 uM, D,L-Thiorphan 0.6 uM
  effect of added peptidase inhibitors on systemic absorption of TRH: did not significantly enhance the systemic absorption of TRH

## CC(C)C[C@H](NC(=O)[C@H](Cc1ccccc1)NC(=O)CNC(=O)CNC(=O)[C@@H](N)Cc1ccc(O)cc1)C(=O)O [enkephalin, Leucine-enkephalin (5-L-leucine)]
[2]; Choroid, 5% enkephalin
  Residual enkephalin remaining in tissues: % of instilled: 0.0110 ± 0.008%
[2]; Ciliary-Body, 0.1245% enkephalin
  Residual enkephalin remaining in tissues: % of instilled: 0.0156 ± 0.003%
[2]; Ciliary-Body, 1% enkephalin
  Residual enkephalin remaining in tissues: % of instilled: 0.0108 ± 0.005%
[2]; Ciliary-Body, 5% enkephalin
  Residual enkephalin remaining in tissues: % of instilled: 0.0042 ± 0.002%
[2]; Cornea, 1% enkephalin
  Residual enkephalin remaining in tissues: % of instilled: 0.0601 ± 0.015%
[2]; Cornea, 5% enkephalin
  Residual enkephalin remaining in tissues: % of instilled: 0.0427 ± 0.012%
[2]; Iris, 0.1245% enkephalin
  Residual enkephalin remaining in tissues: % of instilled: 0.0252 ± 0.003%
[2]; Iris, 1% enkephalin
  Residual enkephalin remaining in tissues: % of instilled: 0.0117 ± 0.005%
[2]; Lens, 0.1245% enkephalin
  Residual enkephalin remaining in tissues: % of instilled: 0.0834 ± 0.013%
[2]; Retina, 0.1245% enkephalin
  Residual enkephalin remaining in tissues: % of instilled: 0.0118 ± 0.004%
[2]; Retina, 5% enkephalin
  Residual enkephalin remaining in tissues: % of instilled: 0.0036 ± 0.002%
[2]; Total, 0.1245% enkephalin
  Residual enkephalin remaining in tissues: % of instilled: 0.3019%
[2]; Total, 1% enkephalin
  Residual enkephalin remaining in tissues: % of instilled: 0.1713%
[2]; Total, 5% enkephalin
  Residual enkephalin remaining in tissues: % of instilled: 0.1136%
[3]
  Tx of blood concentration decline: less than 30 min
[3]; in 5 hrs
  lowest point of blood concentration: 22 ng/mL

## CC(C)C[C@H](NC(=O)CNC(=O)[C@H](Cc1ccc(O)cc1)NC(=O)[C@H](CO)NC(=O)[C@H](Cc1c[nH]c2ccccc12)NC(=O)[C@H](Cc1cnc[nH]1)NC(=O)[C@@H]1CCC(=O)N1)C(=O)N[C@@H](CCCNC(=N)N)C(=O)N1CCC[C@H]1C(=O)NCC(N)=O [LHRH, luteinizing hormone-releasing hormone]
[1]; rabbit, in vivo
  eye-drop concentration sufficient to reach therapeutic effective blood concentration: 0.005%

## CC(=O)O[C@H]1C[C@@]2(C)[C@@H](C[C@@H](O)[C@H]3[C@@]4(C)CC[C@@H](O)[C@@H](C)[C@@H]4CC[C@@]32C)/C1=C(\CCC=C(C)C)C(=O)O [Fusidic acid, sodium fusidate]
[4]
  % Change in Blood Glucose Concentration: 43%
  Blood Glucose Concentration After: 51 mg % and 51 ± 2 mg %
  Blood Glucose Concentration Before: 90 mg % and 90 ± 3 mg %

## C[C@H](CCC(=O)NCC(=O)O)[C@H]1CC[C@H]2[C@@H]3[C@H](O)C[C@@H]4C[C@H](O)CC[C@]4(C)[C@H]3C[C@H](O)[C@]12C [Glycocholate, sodium glycocholate]
[4]
  % Change in Blood Glucose Concentration: 13%
  Blood Glucose Concentration After: 94 mg % and 94 ± 4 mg %
  Blood Glucose Concentration Before: 108 mg % and 108 ± 7 mg %
[5]
  % of insulin taken up by the eyeball: 0.0804%
  Absolute amount of insulin in the eyeball: 200 ng

## NC(=O)[C@@H]1CCCN1C(=O)[C@H](Cc1cnc[nH]1)NC(=O)[C@@H]1CCC(=O)N1 [TRH, Thyrotrophin-releasing hormone]
[1]; female, New Zealand white, rabbit, in vivo, topical or ocular, 1 % solution (25 ul)
  plateau blood TRH concentration: 26 ng/mL
[1]; rabbit, in vivo
  eye-drop concentration giving a therapeutic blood concentration of TRH: ≥ 0.0025%
  time remained at the plateau: approximately 10 hrs
  time to peak: 60 min

## polyoxyethylene sorbitan monolaurate [Tween 20]
[4]; [7]
  effect on blood glucose: a minute reduction in blood glucose concentration
[4]
  % Change in Blood Glucose Concentration: 14%
  Blood Glucose Concentration After: 77 ± 9 mg %
  Blood Glucose Concentration Before: 90 ± 3 mg %
[6]; [7]
  effect on insulin absorption: only a slight increase in insulin absorption
[6]; eye drops 1% insulin plus 1% absorption enhancer (Control: 1% insulin only), 25 ul
  Insulin peak Concentration: 8.8 ± 0.9 ng/mL
[5]
  % of insulin taken up by the eyeball: 0.0771%
  Absolute amount of insulin in the eyeball: 192 ng

## polyoxyethylene-9-lauryl ether [BL-9]
[4]
  % Change in Blood Glucose Concentration: 42%
  Blood Glucose Concentration After: 56 mg % and 56 ± 3 mg %
  Blood Glucose Concentration Before: 97 mg % and 97 ± 2 mg %
[5]
  % of insulin taken up by the eyeball: 0.5221%
  Absolute amount of insulin in the eyeball: 1305 ng

## C[N+](C)(C)CCCCCCCCCC[N+](C)(C)C [Decamethonium, decamethonium bromide]
[4]
  % Change in Blood Glucose Concentration: 8%
  Blood Glucose Concentration After: 83 ± 2 mg %
  Blood Glucose Concentration Before: 90 ± 3 mg %
